Reference: the supplement of paper PMC3974653
Counter-ions that a name gives are not always drawn.

Test system: MTT (mouse pheochromocytoma)
Assay: IC50 of cell viability (ATP content)
Details: (24 or 48 h)
Procedure, shortened: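 MTT mouse pheochromocytoma cells, cultured overnight at 37°C, 5% CO2 in DMEM with 5% FBS and 1% horse serum, were exposed in white 1536-well plates to library compounds in DMSO at final 0.5 nM to 46 µM (8 concentrations) for 24 or 48 hrs. CellTiter-Glo luminescence was normalised to positive-control (100%) and DMSO (0%) wells. A four-parameter logistic fit gave the IC50.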

Compound	IC50 of cell viability
COC(=O)C\1=C(C)\N\C(=C(/[C@@H]1C2=CC(=CC=C2)[N+]([O-])=O)C(=O)O[C@@H]3CCCN(C3)CC4=CC=CC=C4)C (racemic) [rac Benidipine Hydrochloride]	> 46 µM
O[C@@H](CNC[C@H](O)[C@H]1CCc2cc(F)ccc2O1)[C@@H]1CCc2cc(F)ccc2O1 (racemic) [rac Nebivolol Hydrochloride]	> 46 µM
C[C@H]1C2Cc3ccc(O)cc3[C@]1(C)CCN2CC1CC1 (single isomer, unassigned; (+)) [(+)-Cyclazocine]	> 46 µM
CCc1cc(OC)c(CC(C)N)cc1OC (single isomer, unassigned; (-)) [(-)-2,5-Dimethoxy-4-ethylamphetamine]	> 46 µM
COc1cc(CC(C)N)c(OC)cc1C (single isomer, unassigned; (-)) [(-)-2,5-Dimethoxy-4-methylamphetamine]	> 46 µM
COc1ccc(OC)c(CC(C)N)c1 (single isomer, unassigned; (-)) [(-)-2,5-Dimethoxyamphetamine]	> 46 µM
COc1cc(CC(C)N)c(OC)cc1Br (single isomer, unassigned; (-)) [(-)-4-Bromo-2,5-dimethoxyamphetamine]	> 46 µM
CN1C2CCC1C(C(=O)O)C(OC(=O)c1ccccc1)C2 (single isomer, unassigned; (-)) [(-)-Benzoylecgonine]	> 46 µM
COC(=O)C1C(OC(=O)c2ccccc2)CC2CCC1N2C (single isomer, unassigned; (-)) [(-)-Cocaine]	> 46 µM
CCNC(C)Cc1cccc(C(F)(F)F)c1 (single isomer, unassigned; (-)) [(-)-Fenfluramine]	> 46 µM
CC12NC(Cc3ccccc31)c1ccccc12.O=C(O)/C=C/C(=O)O (single isomer, unassigned; (-)) [(-)-MK-801 hydrogen maleate]	> 46 µM
CC1[C@H]2Cc3ccc(O)cc3[C@]1(C)CCN2C (single isomer, unassigned; (-)) [(-)-Metazocine]	> 46 µM
COc1ccc2c3c1O[C@H]1[C@@H](O)C=C[C@H]4C(C2)NCCC341 (single isomer, unassigned; (-)) [(-)-NORCODEINE]	> 46 µM
CC(C)=CCN1CC[C@@]2(C)c3cc(O)ccc3C[C@@H]1C2C (single isomer, unassigned; (-)) [(-)-Pentazocine]	> 46 µM
CC1[C@H]2Cc3ccc(O)cc3[C@]1(C)CCN2CCc1ccccc1 (single isomer, unassigned; (-)) [(-)-Phenazocine]	> 46 µM
O=C(NC1N=C(c2ccccc2F)c2cccc3c2N(CC3)C1=O)c1cc2ccccc2[nH]1 (stereo in doubt)	> 46 µM
CCN(CC)CCO[C@H]1CC[C@@]2(C)C(=CC[C@@H]3C2CC[C@]2(C)C(=O)CCC32)C1 (stereo in doubt) [3b-(2-Diethylaminoethoxy)androst-5-en-17-one, HCl]	> 46 µM
COc1ccc2cc(C(C)C(=O)[O-])ccc2c1.[Na+] (stereo in doubt) [(R) -Naproxen sodium salt]	> 46 µM
CNC1(c2ccccc2Cl)CCCCC1=O (stereo in doubt) [(R)-(+)-Ketamine]	> 46 µM

Compound	IC50 of cell viability
CNC1(c2ccccc2Cl)CCCCC1=O (stereo in doubt) [(S)-(-)-Ketamine]	> 46 µM
CC(=O)NC(CC(C)C)C(=O)O (stereo in doubt) [ACETYL-L-LEUCINE]	> 46 µM
O=C(O)C(O)[C@@H](O)[C@H](O)C(=O)CO (stereo in doubt) [D-XYLO-5-HEXULOSONIC ACID, CALCIUM SALT]	> 46 µM
NC(COP(=O)(O)O)C(=O)O (stereo in doubt) [O-PHOSPHO-L-SERINE]	> 46 µM
CC(C)=CCCC(C)=CCCC(C)=CCC/C=C(\C)CC/C=C(\C)CCC=C(C)C (stereo in doubt) [Squalene]	> 46 µM
Clc1ccccc1Cl [1,2-Dichlorobenzene]	> 46 µM
ClCC1CO1 (configuration not stated) [1,2-Epoxy-3-chloropropane (Epichlorohydrin)]	> 46 µM
Nc1ccccc1N [1,2-Phenylenediamine]	> 46 µM
CC(O)CO (configuration not stated) [1,2-Propylene glycol]	> 46 µM
COc1cc(OC)cc(OC)c1 [1,3,5-TRIMETHOXYBENZENE]	> 46 µM
N=C1NC(=N)c2cc3ccccc3cc21 [1,3-Diiminobenz[f]isoindoline]	> 46 µM
O=[N+]([O-])c1cc([N+](=O)[O-])c2ccccc2c1 [1,3-Dinitronaphthalene]	> 46 µM
N=C(Nc1ccccc1)Nc1ccccc1 [1,3-Diphenylguanidine]	> 46 µM
O=[S+]([O-])(O)CCC[S+](=O)([O-])O.[NaH] [1,3-PROPANEDISULFONIC ACID, DISODIUM SALT]	> 46 µM
Nc1cccc2c(N)cccc12 [1,5-Diaminonaphthalene]	> 46 µM
CCCC(=O)c1cc(O)c(O)cc1O [1-(2,4,5-trihydroxyphenyl)-1-butanone]	> 46 µM
C/C=C(\CC)C(=O)NC(N)=O [1-(2-ETHYLCROTONOYL)UREA]	> 46 µM
COc1ccccc1N1CCNCC1.Cl [1-(2-Methoxyphenyl)piperazine hydrochloride]	> 46 µM
